Assay results taken from PMC3956377, “Rapid kill of malaria parasites by artemisinin and semi-synthetic endoperoxides involves ROS-dependent depolarization of the membrane potential” (Journal of Antimicrobial Chemotherapy, 2013).

Columns and labels:
Type in all cases: biochemical
[1] = molecular target: T1, bc1 (complex III) (Plasmodium falciparum, UniProt Q7HP03+Q8IL75); experiment: spectrophotometric cytochrome c reduction ([…]-542 nm); details: read-out: Percentage inhibition / bc1 (complex III)
T1 construct: gene PF3D7_MIT02300; native complex in cell-free extract of saponin-freed parasites; decylubiquinol:cytochrome c oxidoreductase activity; with Cytochrome c1, heme protein, mitochondrial
T1 sequence (Q7HP03 1-376): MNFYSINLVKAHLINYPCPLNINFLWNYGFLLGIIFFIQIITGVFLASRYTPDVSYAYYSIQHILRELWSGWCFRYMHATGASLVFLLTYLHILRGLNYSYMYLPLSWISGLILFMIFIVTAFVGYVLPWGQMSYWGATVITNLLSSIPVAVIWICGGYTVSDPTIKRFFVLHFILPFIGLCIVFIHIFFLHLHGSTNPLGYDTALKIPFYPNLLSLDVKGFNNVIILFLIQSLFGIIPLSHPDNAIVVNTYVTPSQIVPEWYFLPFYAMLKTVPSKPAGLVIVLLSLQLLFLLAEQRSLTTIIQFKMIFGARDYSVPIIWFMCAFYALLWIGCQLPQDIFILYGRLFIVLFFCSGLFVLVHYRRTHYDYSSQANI
T1 sequence (Q8IL75 31-355): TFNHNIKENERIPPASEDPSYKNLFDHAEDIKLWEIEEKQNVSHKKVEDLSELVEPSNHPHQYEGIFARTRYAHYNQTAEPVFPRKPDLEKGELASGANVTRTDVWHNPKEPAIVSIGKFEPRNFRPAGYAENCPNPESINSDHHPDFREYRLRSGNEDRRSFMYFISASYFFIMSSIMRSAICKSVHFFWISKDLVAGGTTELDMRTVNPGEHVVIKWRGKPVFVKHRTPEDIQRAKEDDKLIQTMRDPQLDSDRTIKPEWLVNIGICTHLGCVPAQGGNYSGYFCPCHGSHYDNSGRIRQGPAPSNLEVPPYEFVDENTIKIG
T1 sequence (Q8I6U9 1-394 partner): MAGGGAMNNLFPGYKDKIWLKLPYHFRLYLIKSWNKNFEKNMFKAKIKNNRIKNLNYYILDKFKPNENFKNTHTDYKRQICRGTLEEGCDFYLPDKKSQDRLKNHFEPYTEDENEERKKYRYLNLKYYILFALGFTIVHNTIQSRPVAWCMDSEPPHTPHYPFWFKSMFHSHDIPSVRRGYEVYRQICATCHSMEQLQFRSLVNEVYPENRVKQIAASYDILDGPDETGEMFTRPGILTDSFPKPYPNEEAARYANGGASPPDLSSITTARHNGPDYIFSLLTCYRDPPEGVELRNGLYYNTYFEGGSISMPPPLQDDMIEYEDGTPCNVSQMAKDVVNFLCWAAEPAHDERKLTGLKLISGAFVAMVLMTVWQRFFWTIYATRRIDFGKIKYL

[2] = molecular target: T2, complex IV (cytochrome c oxidase) (Plasmodium falciparum, UniProt A0A5K1K9G8); experiment: spectrophotometric cytochrome c oxidation; details: read-out: Percentage inhibition / complex IV
T2 construct: gene PF3D7_MIT02100; native complex in cell-free extract of saponin-freed parasites; cytochrome c oxidase activity; with Cytochrome c oxidase subunit 3
T2 sequence (A0A5K1K9G8 1-508): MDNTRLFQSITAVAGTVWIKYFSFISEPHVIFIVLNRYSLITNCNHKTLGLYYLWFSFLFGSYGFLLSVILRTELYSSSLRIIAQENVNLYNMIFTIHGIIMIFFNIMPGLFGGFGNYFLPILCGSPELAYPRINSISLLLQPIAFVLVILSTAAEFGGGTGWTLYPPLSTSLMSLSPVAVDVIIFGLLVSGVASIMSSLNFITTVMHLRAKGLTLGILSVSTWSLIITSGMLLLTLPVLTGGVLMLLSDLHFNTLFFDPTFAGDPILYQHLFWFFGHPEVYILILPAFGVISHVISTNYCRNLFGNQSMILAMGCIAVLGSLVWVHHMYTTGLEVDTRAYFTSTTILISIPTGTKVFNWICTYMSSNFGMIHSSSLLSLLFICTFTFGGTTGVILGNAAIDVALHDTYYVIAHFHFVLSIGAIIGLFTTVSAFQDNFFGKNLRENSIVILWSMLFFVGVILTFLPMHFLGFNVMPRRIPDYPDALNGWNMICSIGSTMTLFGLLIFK
T2 sequence (Q7HP05 1-279 partner): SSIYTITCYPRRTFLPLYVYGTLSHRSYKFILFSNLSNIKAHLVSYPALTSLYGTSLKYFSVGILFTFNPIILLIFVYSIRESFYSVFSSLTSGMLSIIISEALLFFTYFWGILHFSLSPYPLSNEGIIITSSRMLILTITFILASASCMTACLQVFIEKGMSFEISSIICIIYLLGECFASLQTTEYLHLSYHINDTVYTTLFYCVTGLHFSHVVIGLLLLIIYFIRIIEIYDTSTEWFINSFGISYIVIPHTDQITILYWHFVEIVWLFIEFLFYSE

[3] = molecular target: T3, PfNDH2 (Plasmodium falciparum, UniProt Q8I302); experiment: spectrophotometric NADH:quinone oxidoreductase assay ([…] and […] nm); details: read-out: Percentage inhibition / PfNDH2
T3 construct: gene PF3D7_0915000; recombinant, heterologously expressed; Escherichia coli crude membrane preparation
T3 sequence (Q8I302 34-533): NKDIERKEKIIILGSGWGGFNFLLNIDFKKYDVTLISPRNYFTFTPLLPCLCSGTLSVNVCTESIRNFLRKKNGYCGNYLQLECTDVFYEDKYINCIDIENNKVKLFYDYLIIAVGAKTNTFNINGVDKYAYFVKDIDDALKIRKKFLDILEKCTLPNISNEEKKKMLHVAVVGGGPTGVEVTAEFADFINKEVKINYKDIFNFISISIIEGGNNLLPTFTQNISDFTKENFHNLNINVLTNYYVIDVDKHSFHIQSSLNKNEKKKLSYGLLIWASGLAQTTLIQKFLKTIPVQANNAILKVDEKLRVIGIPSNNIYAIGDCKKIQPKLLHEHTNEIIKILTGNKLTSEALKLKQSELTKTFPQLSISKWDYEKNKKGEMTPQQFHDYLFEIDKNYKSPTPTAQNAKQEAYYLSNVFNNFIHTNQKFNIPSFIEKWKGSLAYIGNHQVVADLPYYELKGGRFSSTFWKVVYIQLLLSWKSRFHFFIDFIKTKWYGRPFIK

| SMILES | inhibition at 1 µM [1] [%] | inhibition at 1 µM [2] [%] | inhibition at 1 µM [3] [%] |
| --- | --- | --- | --- |
| C[C@@H]1CC[C@H]2[C@@H](C)C(=O)O[C@@H]3O[C@@]4(C)CC[C@@H]1[C@]32OO4 [Artemisinin] | 3.2 ± 3.7 | 18.4 ± 4.3 | 17.1 ± 4.2 |
| C[C@@H]1CC[C@H]2[C@@H](C)C(O)O[C@@H]3O[C@@]4(C)CC[C@@H]1[C@]32OO4 (stereo partly drawn) [Dihydroartemisinin] | 6.7 ± 4.1 | 21.1 ± 7.9 | 5 ± 4.3 |
| CO[C@H]1O[C@@H]2O[C@@]3(C)CC[C@H]4[C@H](C)CC[C@@H]([C@H]1C)[C@@]24OO3 [Artemether] | 1.8 ± 1.9 | 23 ± 2 | 4.1 ± 3.3 |
| C[C@H]1[C@H](OC(=O)CCC(=O)O)O[C@@H]2O[C@@]3(C)CC[C@H]4[C@H](C)CC[C@@H]1[C@@]24OO3 [Artesunate] | 2.3 ± 0.4 | 21.1 ± 3.9 | 3.7 ± 2.9 |
| CN1CCN(C2CCN(C(=O)CC3CCC4(CC3)OOC3(OO4)C4CC5CC(C4)CC3C5)CC2)CC1 (stereo not drawn) | 23.2 ± 4.2 | 19.1 ± 2 | 12.3 ± 4.9 |
